Data published in patent publication US20080311578A1, “System for screening eukaryotic membrane proteins” (Hydra Biosciences, Inc., priority 2004, published 2008).

Tests used:
Format in all cases: cell-based
[1] = target: T1, rat TrpV1 calcium channel (Rattus norvegicus, UniProt O35433); assay: aequorin calcium flux assay in bacterial cells expressing rat TrpV1
T1 construct: expressed in transfected cells; host or cells: E. coli (Rosetta-Gami B (DE3) pLysS, Novagen), dual-T7 expression plasmid, co-expressed with aequorin
T1 sequence (O35433 whole entry): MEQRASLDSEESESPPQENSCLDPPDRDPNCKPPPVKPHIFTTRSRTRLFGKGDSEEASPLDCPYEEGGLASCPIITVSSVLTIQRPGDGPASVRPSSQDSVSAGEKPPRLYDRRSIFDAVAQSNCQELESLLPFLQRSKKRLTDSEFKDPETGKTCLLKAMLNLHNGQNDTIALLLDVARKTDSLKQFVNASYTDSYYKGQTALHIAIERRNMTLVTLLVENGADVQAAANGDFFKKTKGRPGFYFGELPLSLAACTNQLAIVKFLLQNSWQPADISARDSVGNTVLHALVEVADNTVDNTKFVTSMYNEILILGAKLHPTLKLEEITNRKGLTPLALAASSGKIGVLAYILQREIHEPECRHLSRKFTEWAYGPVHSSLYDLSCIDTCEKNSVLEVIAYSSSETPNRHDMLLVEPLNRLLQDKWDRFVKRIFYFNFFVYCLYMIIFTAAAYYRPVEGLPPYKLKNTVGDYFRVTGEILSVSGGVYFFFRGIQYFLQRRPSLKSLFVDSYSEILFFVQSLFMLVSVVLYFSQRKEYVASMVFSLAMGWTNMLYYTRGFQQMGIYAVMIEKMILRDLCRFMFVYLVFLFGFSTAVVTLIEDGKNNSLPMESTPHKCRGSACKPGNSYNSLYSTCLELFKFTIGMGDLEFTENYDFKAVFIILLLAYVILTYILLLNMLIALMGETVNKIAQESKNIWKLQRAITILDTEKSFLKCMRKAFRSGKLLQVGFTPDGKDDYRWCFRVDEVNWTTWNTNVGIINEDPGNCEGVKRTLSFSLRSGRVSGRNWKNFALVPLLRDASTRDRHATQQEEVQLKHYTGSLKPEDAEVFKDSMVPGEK
Experimental: (§1) 1) 0.5-2 mL of an overnight bacteria (already transformed with a nucleic acid construct or composition encoding a eukaryotic Calcium ion channel and an aequorin marker) culture is innoculated into 25 mL of LB-Amp;
(§2) 2) Bacteria are grown to an OD (optical density) of 0.6;
(§3) 3) 1 mM IPTG added for 2-hour induction;
(§4) 4) Bacteria are spun down, resuspended in ½ volume of nominally divalent free ringers and loaded with coelenterazine;
(§5) 5) Bacteria are rinsed and loaded into 96 well plate ([…]);
(§6) 6) Plate is put in a plate reader, e.g., a Wallac Victor 3;
(§7) 7) Plate is shaken for 2 sec then rested for 5 seconds;
(§8) 8) 10 reads are taken 1 second apart;
(§9) 9) 5 μL of 20 mM CaCl2 is injected;
(§10) 10) 50 reads are taken 1 second apart;
(§11) Note: When a blocker is present, it is added before the plate is put in the reader.
(§12) A further indicator of the functional activity of the ion channel is whether its activity is sensitive to treatment with agonistic or inhibitory agents. FIG. 5 summarizes experiments conducted to address this issue. […] Furthermore, the calcium-flux mediating activity of the channels is inhibited following addition of the calcium channel inhibitor, lanthanum.
(§13) The Trp channel blocker ruthenium red inhibits TrpV1 mediated calcium flux in bacterial cells or CHO cells.

[2] = target: T2, rat TrpV1 (Rattus norvegicus, UniProt O35433); assay: TrpV1 mediated calcium flux in CHO cells; conditions: FIG. 8
T2 construct: expressed in transfected cells; host or cells: CHO cells
T2 sequence (O35433 whole entry): as above
Text: as §13

[3] = target: T3, human CatSper 1 calcium channel (Homo sapiens, UniProt Q8NEC5); assay: aequorin calcium flux assay in bacterial cells expressing hCatSper1; conditions: CatSper1 expressed in bacterial cells, FIG. 5
T3 construct: expressed in transfected cells; host or cells: E. coli (Rosetta-Gami B (DE3) pLysS, Novagen), modified pET dual-T7 vector, co-expressed with apo-aequorin
T3 sequence (Q8NEC5 1-780): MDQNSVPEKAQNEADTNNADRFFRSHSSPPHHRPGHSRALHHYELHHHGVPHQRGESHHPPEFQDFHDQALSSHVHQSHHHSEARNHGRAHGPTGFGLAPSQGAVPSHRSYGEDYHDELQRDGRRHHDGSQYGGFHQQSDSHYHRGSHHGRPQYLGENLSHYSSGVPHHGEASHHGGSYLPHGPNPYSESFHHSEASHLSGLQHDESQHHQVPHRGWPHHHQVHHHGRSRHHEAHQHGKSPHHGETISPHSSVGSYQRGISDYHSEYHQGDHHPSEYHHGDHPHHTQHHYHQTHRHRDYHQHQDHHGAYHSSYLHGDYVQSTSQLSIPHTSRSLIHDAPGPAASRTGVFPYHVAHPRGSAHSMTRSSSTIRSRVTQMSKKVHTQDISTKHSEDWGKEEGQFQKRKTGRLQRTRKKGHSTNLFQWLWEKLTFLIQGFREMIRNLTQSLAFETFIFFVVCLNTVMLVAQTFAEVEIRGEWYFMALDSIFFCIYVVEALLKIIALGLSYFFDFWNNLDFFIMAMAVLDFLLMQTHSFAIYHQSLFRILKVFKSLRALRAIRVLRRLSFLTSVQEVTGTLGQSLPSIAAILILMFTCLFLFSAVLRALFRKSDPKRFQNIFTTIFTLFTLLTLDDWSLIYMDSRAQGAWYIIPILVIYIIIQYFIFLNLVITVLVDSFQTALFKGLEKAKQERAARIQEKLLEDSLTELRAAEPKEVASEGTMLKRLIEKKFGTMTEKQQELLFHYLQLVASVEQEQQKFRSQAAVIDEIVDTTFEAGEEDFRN
Experimental: as §1, §2, §3, §4, §5, §6, §7, §8, §9, §10, §11, §12

SMILES: N.N.N.N.N.N.N.N.N.N.N.N.N.N.[Cl-].[Cl-].[Cl-].[Cl-].[Cl-].[Cl-].[O-2].[O-2].[Ru+3].[Ru+3].[Ru+4] [ruthenium red]
- potency (IC50) in bacterial cells compared with CHO cells ([1]; bacterial cells vs CHO cells, FIG. 8): somewhat less potent
- inhibition of TrpV1 mediated calcium flux ([1]; bacterial cells, FIG. 8): inhibits
- calculated Hill slope values, CHO cells vs bacterial cells ([1]; comparison between the CHO cells and the bacterial cells, FIG. 8): not significantly different
- inhibition of TrpV1 mediated calcium flux [2]: inhibits

SMILES: [La] [lanthanum]
- inhibition of calcium-flux mediating activity of the channel ([1]; TrpV1 expressed in bacterial cells, FIG. 5): inhibited in a dose dependent fashion
- inhibition of calcium-flux mediating activity of the channel [3]: inhibited in a dose dependent fashion
